Values of other authors as cited in patent publication US20230303507A1, “RIGID C[…] AS POTENT MODULATORS OF CANNABINOID RECEPTORS AND USES THEREOF” (priority 2020, published 2023).

Biological target: CB2 (Homo sapiens, UniProt P34972)
Sequence (P34972 whole entry, species assumed): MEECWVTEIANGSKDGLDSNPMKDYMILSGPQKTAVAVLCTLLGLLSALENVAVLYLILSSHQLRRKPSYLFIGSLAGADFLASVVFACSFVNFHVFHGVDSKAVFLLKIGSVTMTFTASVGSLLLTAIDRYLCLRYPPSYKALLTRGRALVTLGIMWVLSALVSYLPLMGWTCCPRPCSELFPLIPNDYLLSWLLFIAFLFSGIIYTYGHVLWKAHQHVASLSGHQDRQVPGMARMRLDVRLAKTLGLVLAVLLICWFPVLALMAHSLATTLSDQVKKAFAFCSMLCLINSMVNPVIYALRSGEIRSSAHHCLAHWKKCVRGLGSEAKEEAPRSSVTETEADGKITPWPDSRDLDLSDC

Compound | mode of action on CB2
CCCCCc1cc(O)c2c(c1)OC(C)(C)[C@@H]1CCC(C)=C[C@@H]21 [THC, delta-9-tetrahydrocannabinol] | partial agonist
C=C(C)[C@@H]1CCC(C)=C[C@H]1c1c(O)cc(CCCCC)cc1O [CBD, cannabidiol] | weak inverse agonist
